Data set [1] concerns patients with dyspepsia associated with gastric ulcers, duodenal ulcers, reflux esophagitis and gastroesophageal reflux without esophagitis. Particulars: clinical studies; cited from earlier work.
The subject of data set [2] is patients affected by sleeping disturbance. In words: Administration of esomeprazole to patients affected by sleeping disturbance. It counts as in vivo, human. The settings on record: especially with GERD, oral route. The text has this:
This applies especially to patients with GERD.
While the effect on the symptoms of sleeping disturbance have been established in patients who have taken esomeprazole by the oral route, it is believed that the improved effect of esomeprazole is a systemic effect which is not dependent on what mode of administration that is used, and that accordingly the improved effect on sleeping and quality of life will be seen also with other routes of administration such as rectal or parenteral administration.
The invention is further exemplified by the following case studies. During oral treatment with esomeprazole for acid related diseases such as non-erosive and erosive induced upper gastrointestinal disorders, evidence has accumulated that esomeprazole may be beneficial for treatment of sleeping disturbance especially in patients with GERD and endoscopy negative GERD.

The conditions of data set [3]: at neutral or acid pH; cited from earlier work.

In the case of `COc1ccc2[nH]c([S+]([O-])Cc3ncc(C)c(OC)c3C)nc2c1` (racemic) [omeprazole, 5-methoxy-2-[[(4-methoxy-3,5-dimethyl-2-pyridinyl)methyl]sulfinyl]-1H-benzimidazole], the “healing of gastroduodenal and esophageal lesions and dyspeptic symptom resolution versus H2 receptor antagonists” value in data set [1] is “superior to H2 receptor antagonists”.

Turning to `COc1ccc2nc([S@@+]([O-])Cc3ncc(C)c(OC)c3C)[nH]c2c1` [esomeprazole, S-5-methoxy-2-[[(4-methoxy-3,5-dimethyl-2-pyridinyl)methyl]sulfinyl]-1H-benzimidazole], the “effect on symptoms of sleeping disturbance” value in data set [2] was “disappearance or great improvement of the symptoms”. Moreover, the storage stability result in data set [3] is reported as “poor storage stability”.

Values taken from patent publication US20050182100A1, “Method of use” (priority 2002, published 2005).
